Series [1] can be described thus: Preclinical PK, oral and IV. Type of series: in vivo, monkey.
In series [2] the test system is IL-10 secretion, ABC-DLBCL OCI-LY-10 cells. Kind of series: IL-10 secretion by OCI-LY-10 cells (MesoScale). Type of series: cell-based. Particulars: Homo sapiens, OCI-Ly10; 6 independent experiments; read-out: IC50, IL-10 secretion (mean±SEM). On the procedure: In Vitro Activity in DLBCL Cell Lines—NFκB signaling regulates the secretion of multiple cytokines, including interleukin (IL)-6 and IL-10. Secretion of IL-6 and -10 by ABC-DLBCL OCI-LY-10 cells was measured using a MesoScale assay. […] To determine the anti-proliferative activity of the compound of formula (III), several ABC-DLBCL cell lines—OCI-LY-3, OCI-LY-10, TMD8, and HBL-1—were treated for 8 days. […] The OCI-LY-3 cell line, which harbors a CARD11 mutation downstream of BTK in the NF-κB signaling pathway, was completely insensitive to the compound of Formula (III) up to 2 μM. In 2 experiments, OCI-LY-3 cells were insensitive to the compound of Formula (III) at all concentrations up to 10 μM.

Series [3] has as its target T1, BLK (Homo sapiens, UniProt P51451).
T1 construct: purchased Eurofins Scientific
Nature of the series: Eurofins KinaseProfiler/IC50Profiler radiometric kinase activity assay. It is filed as biochemical. On the procedure: (§1) RESULTS AND DISCUSSION—Selectivity—The compound of Formula (III) was evaluated in three selectivity panels to assess the potential for off-target pharmacology (Table 8). […] The kinase off-target profile of The compound of Formula (III) was assessed in a full human wild-type panel using radiometric kinase activity assays (KinaseProfiler™ and IC50Profiler™; Eurofins Scientific) (Table 9; FIG. 23). The compound of Formula (III) inhibited 4/278 kinases >50% at 1 micromolar, identifying BTK and the three other kinases having analogous Cys residues with the potential for covalent inhibition (BMX, TEC, BLK). […]. The cellular kinase selectivity of The compound of Formula (III) was established in native Ramos B cell kinome assays (KiNativ™; ActivX) confirmed BTK as the primary target with inhibition of BLK and TEC inhibition detected (Table 10).

In series [4] the target is T2, BMX (Homo sapiens, UniProt P51813).
T2 construct: purchased Eurofins Scientific
T2 sequence (P51813 whole entry): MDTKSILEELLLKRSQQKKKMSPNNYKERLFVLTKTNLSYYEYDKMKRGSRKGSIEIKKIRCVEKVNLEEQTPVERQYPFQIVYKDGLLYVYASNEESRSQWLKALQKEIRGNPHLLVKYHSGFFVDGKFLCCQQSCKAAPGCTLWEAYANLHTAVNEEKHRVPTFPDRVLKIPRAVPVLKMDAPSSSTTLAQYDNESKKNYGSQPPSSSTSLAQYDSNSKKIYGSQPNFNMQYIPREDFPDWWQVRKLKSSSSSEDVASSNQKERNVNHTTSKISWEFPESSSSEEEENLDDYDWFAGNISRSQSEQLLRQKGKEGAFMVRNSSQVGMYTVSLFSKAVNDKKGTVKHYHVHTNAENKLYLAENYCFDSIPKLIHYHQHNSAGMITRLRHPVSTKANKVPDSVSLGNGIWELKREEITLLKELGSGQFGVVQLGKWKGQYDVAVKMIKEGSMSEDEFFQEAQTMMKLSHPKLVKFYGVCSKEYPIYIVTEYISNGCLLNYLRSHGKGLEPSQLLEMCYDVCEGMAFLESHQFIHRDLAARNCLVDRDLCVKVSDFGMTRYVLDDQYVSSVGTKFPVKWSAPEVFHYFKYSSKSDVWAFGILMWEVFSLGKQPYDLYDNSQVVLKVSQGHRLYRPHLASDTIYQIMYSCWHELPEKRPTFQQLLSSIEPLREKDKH
The description is as above. Type of series: biochemical. How it is done:
as §1

Series [5] addresses T3, TEC (Homo sapiens, UniProt P42680).
T3 construct: purchased Eurofins Scientific
T3 sequence (P42680 1-631): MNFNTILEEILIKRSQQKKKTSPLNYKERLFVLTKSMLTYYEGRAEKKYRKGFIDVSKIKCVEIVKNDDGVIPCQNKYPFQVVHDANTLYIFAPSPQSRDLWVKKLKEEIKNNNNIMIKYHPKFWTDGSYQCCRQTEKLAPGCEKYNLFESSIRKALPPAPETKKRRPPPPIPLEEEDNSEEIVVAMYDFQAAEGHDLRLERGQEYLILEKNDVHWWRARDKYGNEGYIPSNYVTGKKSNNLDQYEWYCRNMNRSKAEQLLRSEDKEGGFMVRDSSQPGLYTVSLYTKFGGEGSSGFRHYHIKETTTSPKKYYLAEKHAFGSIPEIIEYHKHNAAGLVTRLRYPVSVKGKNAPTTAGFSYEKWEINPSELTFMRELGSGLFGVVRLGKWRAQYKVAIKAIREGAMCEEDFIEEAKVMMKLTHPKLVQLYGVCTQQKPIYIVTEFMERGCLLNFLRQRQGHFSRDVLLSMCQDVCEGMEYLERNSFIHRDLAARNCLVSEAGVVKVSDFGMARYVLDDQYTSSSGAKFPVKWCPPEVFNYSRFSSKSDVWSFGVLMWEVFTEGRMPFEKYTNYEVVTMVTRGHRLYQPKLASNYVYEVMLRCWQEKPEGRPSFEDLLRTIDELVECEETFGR
Described as above. Type of series: biochemical. How it is done:
as §1

For series [6], the target named is BTK (Homo sapiens, UniProt Q06187). The series is described as above. Type of series: biochemical. On the procedure:
as §1

Series [7] deals with 278 human wild type kinases. Nature of the series: Full human wild-type kinase panel (KinaseProfiler). Type of series: biochemical. Particulars: 1 micromolar. How it is done: as §1
The target in series [8] is T4, CYP3A4 (Homo sapiens, UniProt P08684).
T4 construct: with specific CYP probe substrates in human liver microsomes; from tissue; host or cells: human liver microsomes
T4 sequence (P08684 whole entry): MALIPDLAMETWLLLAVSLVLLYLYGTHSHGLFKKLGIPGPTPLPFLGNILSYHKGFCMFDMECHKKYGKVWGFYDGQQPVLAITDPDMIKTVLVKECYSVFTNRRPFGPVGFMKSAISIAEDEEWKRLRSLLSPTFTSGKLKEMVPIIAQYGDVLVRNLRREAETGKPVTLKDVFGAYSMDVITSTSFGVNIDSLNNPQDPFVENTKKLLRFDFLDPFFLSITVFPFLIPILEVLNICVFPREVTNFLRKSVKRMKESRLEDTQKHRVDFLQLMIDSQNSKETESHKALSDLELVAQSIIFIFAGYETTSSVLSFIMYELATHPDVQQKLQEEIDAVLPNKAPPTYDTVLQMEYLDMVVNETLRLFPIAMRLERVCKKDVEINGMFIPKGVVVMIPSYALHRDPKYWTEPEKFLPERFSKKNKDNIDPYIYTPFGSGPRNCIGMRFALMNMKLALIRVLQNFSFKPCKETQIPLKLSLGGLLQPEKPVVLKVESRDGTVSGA
Kind of series: Metabolism by recombinant CYPs. Type of series: in vitro ADME. Particulars: 1 μM, 100 pmol P450/mL, 1 mM NADPH. How it is done:
To assess the potential of the compound of Formula (III) to be a time-dependent inhibitor of CYP3A, human liver microsomes were preincubated for 30 minutes at 37° C. with the compound of Formula (III) at concentrations up to 10 μM, and CYP3A activity was measured using testosterone as a probe substrate. […] The potential of the compound of Formula (III) to induce CYPs at the transcriptional level was assessed using Puracyp™ DPX2 (CYP3A4, PXR) and DRE (CYP1A2, AhR) luciferase-reporter cell lines; rifampicin and omeprazole were used as positive controls for CYP3A and CYP1A induction, respectively. The activation by the compound of Formula (III) was <20% of positive control values for PXR (6.6% and 14.1% at 1 and 10 μM change, respectively) or AhR (0.1% and 0.3% change, respectively). […] Potential involvement of various CYP isoforms in the metabolism of the compound of Formula (III) was investigated by measuring the parent compound remaining after 1-hour incubation with the compound of Formula (III) (1 μM) with recombinant CYPs (rCYPs) at 100 pmol P450/mL in the presence of 1 mM NADPH at 37° C. The only isozyme that produced notable the compound of Formula (III) turnover with <1% parent remaining after 1-hour incubation was CYP3A4 (FIG. 24). […]

Where [9] appears, read: 10-point concentration response, read-out: IC50 (IC50 Profiler).

As a reminder, the Cmax is the peak of the concentration-time curve. As usually defined, the Tmax is the time from dosing to the highest level. A word on the IC50: it is the concentration needed to halve the response being measured. Broadly, the inhibition is the change of the read-out against control, counted positive when it falls.

T1 sequence (P51451 whole entry): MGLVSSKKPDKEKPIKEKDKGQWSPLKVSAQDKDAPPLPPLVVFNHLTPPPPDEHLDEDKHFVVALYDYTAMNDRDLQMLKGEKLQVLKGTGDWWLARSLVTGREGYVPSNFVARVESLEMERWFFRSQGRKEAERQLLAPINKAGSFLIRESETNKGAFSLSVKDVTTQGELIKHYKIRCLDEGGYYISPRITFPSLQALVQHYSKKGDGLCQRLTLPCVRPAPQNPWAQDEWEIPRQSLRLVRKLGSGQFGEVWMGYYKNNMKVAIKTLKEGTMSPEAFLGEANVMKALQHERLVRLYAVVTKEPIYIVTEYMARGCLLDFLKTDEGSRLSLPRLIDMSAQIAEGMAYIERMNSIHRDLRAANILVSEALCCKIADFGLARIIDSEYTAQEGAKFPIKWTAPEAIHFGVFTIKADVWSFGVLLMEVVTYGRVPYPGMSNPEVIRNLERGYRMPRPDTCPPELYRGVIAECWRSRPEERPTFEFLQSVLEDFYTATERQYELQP
Sequence of BTK (Q06187 whole entry): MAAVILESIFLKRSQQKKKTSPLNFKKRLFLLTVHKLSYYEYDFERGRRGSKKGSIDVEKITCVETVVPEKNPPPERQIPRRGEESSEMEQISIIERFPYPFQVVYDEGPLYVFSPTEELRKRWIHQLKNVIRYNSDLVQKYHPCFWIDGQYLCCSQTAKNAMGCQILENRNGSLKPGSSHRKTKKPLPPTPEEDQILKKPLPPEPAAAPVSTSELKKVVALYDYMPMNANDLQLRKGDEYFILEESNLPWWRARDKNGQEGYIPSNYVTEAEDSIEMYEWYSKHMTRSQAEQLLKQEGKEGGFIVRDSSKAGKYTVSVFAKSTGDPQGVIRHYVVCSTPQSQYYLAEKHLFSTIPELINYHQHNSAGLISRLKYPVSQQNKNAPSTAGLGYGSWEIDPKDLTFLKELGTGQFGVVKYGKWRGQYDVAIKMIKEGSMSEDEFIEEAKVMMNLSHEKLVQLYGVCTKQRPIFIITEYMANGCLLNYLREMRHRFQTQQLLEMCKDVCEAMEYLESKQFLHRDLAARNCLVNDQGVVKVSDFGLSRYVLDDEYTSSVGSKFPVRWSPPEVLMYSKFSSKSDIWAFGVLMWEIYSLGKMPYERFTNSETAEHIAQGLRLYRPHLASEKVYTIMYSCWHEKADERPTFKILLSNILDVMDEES

In turn, `C=CC(=O)N[C@H]1CCC[C@H]1NC(=O)c1sc2nccc3c2c1NC(=O)N3c1cnc(CC(C)C)cc1C` (atropisomer, axis not shown) [compound of Formula (III), N-((1R,2S)-2-Acrylamidocyclopentyl)-5-(S)-(6-isobutyl-4-methylpyridin-3-yl)-4-oxo-4,5-dihydro-3H-1-thia-3,5,8-triazaacenaphthylene-2-carboxamide] yielded a clearance in series [1] (monkey, in vivo, iv) of 3.1 ± 0.3 mL/min/kg. The half-life in series [1] (monkey, in vivo, iv, read-out: IV T1/2 (converted)) was 4 h. For the same compound, the Vd in series [1] (monkey, in vivo, iv, read-out: Vss) came out at 0.7 L/kg. The compound also returned a peak concentration (Cmax) in series [1] (monkey, in vivo, oral) of 1010 ± 94 ng/mL. For the same compound, in series [1] (monkey, in vivo, oral), the Tmax came out at 1.7 ± 0.6 h. Also, the AUC(0-inf) in series [1] (monkey, in vivo, oral, read-out: Oral AUCinf) turned out to be 10000 ± 2270 ng·h/mL. The compound also gave a F in series [1] (oral, monkeys) of 75 ± 17%. In addition, the IC50 in series [2] was 18 ± 7 nM; in series [3] (setting [9]), 3130 nM; in series [4] (setting [9]), 172 nM; in series [5] (setting [9]), 303 nM; in series [6] (setting [9]), 558 nM. Also, the inhibition at 1 µM stood at 54% in series [3] (1 μM), 92% in series [4] (1 μM), 88% in series [5] (1 μM) and 98% in series [6] (1 μM). Moreover, in series [7], the “kinases inhibited >50%” value is given as 4/278. Moreover, in series [8], the “parent remaining after 1-hour incubation” value is recorded as less than 1%.

The values above are taken from US12622910B2, “Inhibitors of Bruton's tyrosine kinase and methods of their use” (Janssen Pharmaceutica NV, priority 2021, dated 2026).
